From ChEMBL document CHEMBL3880382, “TRH-like peptide derivatives as inhibitors of the TRH-degrading ectoenzyme” (2010)
One block for each compound: values may come before it. Activity calls are given as the source filed them. The rule behind the calls is not given here. Non-standard residues stand in square brackets, D forms with d. Residues, ends and D or L forms follow the SMILES beside them. *: point of attachment. pGlu = O=C1CC[C@@H](C(=O)O)N1; NHBn = c1ccc(CN*)cc1

How the values were obtained:
[1] = target: Thyrotropin releasing hormone degrading enzyme (Sus scrofa, UniProt A0A287AP33); assay: Inhibition of pig brain TRH-DE using Glp-His-ProAMC as substrate by DPP-4-based continuous fluorometric method
Sequence of Thyrotropin releasing hormone degrading enzyme (A0A287AP33 whole entry): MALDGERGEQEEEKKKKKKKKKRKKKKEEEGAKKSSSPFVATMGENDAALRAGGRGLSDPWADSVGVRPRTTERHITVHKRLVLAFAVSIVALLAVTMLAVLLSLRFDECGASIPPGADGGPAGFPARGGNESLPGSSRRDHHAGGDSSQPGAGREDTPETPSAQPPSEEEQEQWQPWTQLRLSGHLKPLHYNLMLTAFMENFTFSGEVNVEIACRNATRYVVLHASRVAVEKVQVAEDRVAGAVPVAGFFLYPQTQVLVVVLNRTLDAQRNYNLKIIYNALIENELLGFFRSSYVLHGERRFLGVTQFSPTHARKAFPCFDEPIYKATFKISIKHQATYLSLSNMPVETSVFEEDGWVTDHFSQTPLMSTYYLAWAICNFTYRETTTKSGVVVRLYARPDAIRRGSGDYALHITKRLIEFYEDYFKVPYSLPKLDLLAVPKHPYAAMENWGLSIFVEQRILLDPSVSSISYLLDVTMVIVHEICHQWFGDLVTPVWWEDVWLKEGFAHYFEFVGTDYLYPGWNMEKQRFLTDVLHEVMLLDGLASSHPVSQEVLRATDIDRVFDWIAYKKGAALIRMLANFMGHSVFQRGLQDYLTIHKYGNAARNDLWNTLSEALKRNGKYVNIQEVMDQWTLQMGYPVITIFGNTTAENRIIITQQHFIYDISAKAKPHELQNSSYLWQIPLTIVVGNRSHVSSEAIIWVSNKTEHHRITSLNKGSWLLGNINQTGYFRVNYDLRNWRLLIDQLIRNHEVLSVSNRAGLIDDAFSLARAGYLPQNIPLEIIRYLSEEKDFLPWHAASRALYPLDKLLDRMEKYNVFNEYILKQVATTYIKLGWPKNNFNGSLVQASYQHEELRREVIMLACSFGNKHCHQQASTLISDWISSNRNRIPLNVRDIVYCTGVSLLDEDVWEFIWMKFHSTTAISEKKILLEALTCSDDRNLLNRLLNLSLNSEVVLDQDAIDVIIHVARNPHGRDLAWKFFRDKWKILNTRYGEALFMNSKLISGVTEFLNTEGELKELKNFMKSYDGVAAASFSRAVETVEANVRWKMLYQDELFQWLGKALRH

[2] = target: T1, Thyrotropin releasing hormone degrading enzyme (Sus scrofa) (UniProt A0A287AP33); assay: Substrate activity at pig brain TRH-DE assessed as retention time at 1 mM incubated for 18 hrs by HPLC analysis
T1 sequence (A0A287AP33 as listed by the source): as the sequence (A0A287AP33 whole entry) above

[3] = target: T1, Thyrotropin releasing hormone degrading enzyme (Sus scrofa); assay: Substrate activity at pig brain TRH-DE assessed as Vmax to Km ratio
[4] = target: T1, Thyrotropin releasing hormone degrading enzyme (Sus scrofa); assay: Substrate activity at pig brain TRH-DE assessed as rate of hydrolysis at 1 mM incubated for 18 hrs by HPLC analysis
[5] = target: T1, Thyrotropin releasing hormone degrading enzyme (Sus scrofa); assay: Inhibition of pig brain TRH-DE at 1 mM using Glp-His-ProAMC as substrate by DPP-4-based continuous fluorometric method
Rattus norvegicus [6] = assay: In vivo inhibition of TRH-DE in cannulated Wistar rat assessed as TRH-mediated increase in locomotion at 10 mg/kg, ip measured every 5 mins for 30 secs during 40 mins of observation period; assay type: functional, organism-based
[7] = target: T2, Thyrotropin-releasing hormone receptor (Rattus norvegicus, UniProt Q01717); assay: Displacement of [3H]-3MeHis-TRH from TRH receptor in Sprague-Dawley rat cortical membranes
T2 sequence (Q01717 whole entry): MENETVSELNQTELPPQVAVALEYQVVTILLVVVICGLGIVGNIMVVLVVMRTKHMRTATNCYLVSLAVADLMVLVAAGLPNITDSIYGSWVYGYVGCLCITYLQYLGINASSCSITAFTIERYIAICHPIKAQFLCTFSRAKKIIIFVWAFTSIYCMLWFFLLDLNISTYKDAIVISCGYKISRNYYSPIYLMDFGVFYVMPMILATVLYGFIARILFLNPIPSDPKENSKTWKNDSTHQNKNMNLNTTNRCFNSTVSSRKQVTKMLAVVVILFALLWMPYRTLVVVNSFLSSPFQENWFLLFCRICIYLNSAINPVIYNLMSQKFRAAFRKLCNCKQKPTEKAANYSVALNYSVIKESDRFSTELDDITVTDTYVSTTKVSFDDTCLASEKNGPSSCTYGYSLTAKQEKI

[8] = target: T1, Thyrotropin releasing hormone degrading enzyme (Sus scrofa); assay: Reversible inhibition of pig brain TRH-DE using Glp-His-ProAMC as substrate at 160 uM preincubated for 75 mins by DPP-4-based continuous fluorometric method
[9] = target: T1, Thyrotropin releasing hormone degrading enzyme (Sus scrofa); assay: Competitive inhibition of pig brain TRH-DE at 12.5 to 50 uM using Glp-His-ProAMC as substrate by Lineweaver-Burk analysis
Rattus norvegicus [10] = assay: In vivo inhibition of TRH-DE in cannulated Wistar rat assessed as increase in TRH-mediated locomotion at 5 ug in 1 ul, icv after 30 mins; assay type: functional, organism-based
[11] = target: T1, Thyrotropin releasing hormone degrading enzyme (Sus scrofa); assay: Reversible inhibition of pig brain TRH-DE using Glp-His-ProAMC as substrate at 400 uM preincubated for 75 mins by DPP-4-based continuous fluorometric method

Activity [4]: 2.54 U/mg
Vmax/Km [3]: 0.08 U/mg/µM
Structure (SMILES): NC(=O)[C@@H]1CCCN1C(=O)[C@H](Cc1c[nH]cn1)NC(=O)[C@@H]1CCC(=O)N1

Activity [4]: 3.38 U/mg
Vmax/Km [3]: 0.01 U/mg/µM
Structure (SMILES): O=C1CC[C@@H](C(=O)N[C@@H](Cc2cnc[nH]2)C(=O)N2CCC[C@H]2C(=O)O)N1

Activity [4]: 0.02 U/mg
Structure (SMILES): C[C@H](NC(=O)[C@@H]1CCC(=O)N1)C(=O)N1CCC[C@H]1C(N)=O ([pGlu]-Ala-Pro-NH2)

Activity [4]: 0.41 U/mg
Structure (SMILES): N=C(N)NCCC[C@H](NC(=O)[C@@H]1CCC(=O)N1)C(=O)N1CCC[C@H]1C(N)=O ([pGlu]-Arg-Pro-NH2)

inhibition [5]: 97%
Ki [7]: 7.08 µM
inhibition [8]: Active
inhibition [9]: Active
Structure (SMILES): NC(=O)C[C@H](NC(=O)[C@@H]1CCC(=O)N1)C(=O)N1CCC[C@H]1C(N)=O ([pGlu]-Asn-Pro-NH2)
inhibition (Rattus norvegicus [6]): Active
inhibition (Rattus norvegicus [10]): Active

inhibition [5]: 1%
Structure (SMILES): NC(=O)[C@@H]1CCCN1C(=O)[C@H](CC(=O)O)NC(=O)[C@@H]1CCC(=O)N1 ([pGlu]-Asp-Pro-NH2)

inhibition [11]: Active
inhibition [5]: 83%
Structure (SMILES): NC(=O)CC[C@H](NC(=O)[C@@H]1CCC(=O)N1)C(=O)N1CCC[C@H]1C(N)=O ([pGlu]-Gln-Pro-NH2)

inhibition [5]: 17%
Structure (SMILES): NC(=O)[C@@H]1CCCN1C(=O)[C@H](CCC(=O)O)NC(=O)[C@@H]1CCC(=O)N1 ([pGlu]-Glu-Pro-NH2)

inhibition [5]: 8%
Structure (SMILES): NC(=O)[C@@H]1CCCN1C(=O)CNC(=O)[C@@H]1CCC(=O)N1 ([pGlu]-Gly-Pro-NH2)

Activity [4]: 0.06 U/mg
Structure (SMILES): CC[C@H](C)[C@H](NC(=O)[C@@H]1CCC(=O)N1)C(=O)N1CCC[C@H]1C(N)=O ([pGlu]-Ile-Pro-NH2)

More lines, now with the values behind:

Structure (SMILES): NC(=O)C[C@H](NC(=O)[C@@H]1CCC(=O)N1)C(=O)N1CCC[C@H]1C(=O)NC(=O)C1CCCc2ccccc21 (some centres not stated)
Ki [1]: 22.4 µM
Retention time [2]: 18.4 min

Structure (SMILES): NC(=O)C[C@H](NC(=O)[C@@H]1CCC(=O)N1)C(=O)N1CCC[C@H]1C(=O)Nc1ccccc1CO
Ki [1]: 20.6 µM
Retention time [2]: 11.9 min

Structure (SMILES): COc1ccc(NC(=O)[C@@H]2CCCN2C(=O)[C@H](CC(N)=O)NC(=O)[C@@H]2CCC(=O)N2)cc1
Retention time [2]: 15 min

Structure (SMILES): COc1cccc(NC(=O)[C@@H]2CCCN2C(=O)[C@H](CC(N)=O)NC(=O)[C@@H]2CCC(=O)N2)c1
Retention time [2]: 15.9 min

Structure (SMILES): COc1ccccc1NC(=O)[C@@H]1CCCN1C(=O)[C@H](CC(N)=O)NC(=O)[C@@H]1CCC(=O)N1
Retention time [2]: 15.4 min

Structure (SMILES): Cc1cc(=O)oc2cc(NC(=O)[C@@H]3CCCN3C(=O)[C@H](Cc3cnc[nH]3)NC(=O)[C@@H]3CCC(=O)N3)ccc12
Vmax/Km [3]: 0.04 U/mg/µM

Structure (SMILES): NC(=O)C[C@H](NC(=O)[C@@H]1CCC(=O)N1)C(=O)N1CCC[C@H]1C(=O)NCc1ccccc1 ([pGlu]-Asn-Pro-NHBn)
Retention time [2]: 14.3 min
